From patent US9249153B2, “Pharmaceutical composition for treating aging-associated diseases, containing progerin expression inhibitor as active ingredient, and screening method of said progerin expression inhibitor” (PUSAN NATIONAL UNIVERSITY INDUSTRY-UNIVERSITY COOPERATION …, priority 2011, dated 2016)
Each block holds one molecule with its values, some of them ahead of it.

Columns and labels:
LMN A-progerin binding = LMN A-progerin binding (Homo sapiens, UniProt P02545); details: in vitro binding assay
HGPS cells [1] = assay: nuclear LMN A/C staining in two kinds of HGPS cells; type: cell-based, human; details: for nuclear deformation: two kinds of HGPS cells, incubation for 24 hrs
Prg-LMN A binding = target: T1, Prg-LMN A binding (Homo sapiens, UniProt P02545); details: GST-pull down, cell lysate
T1 sequence (P02545 515-614 isoform P02545-6 limits assumed): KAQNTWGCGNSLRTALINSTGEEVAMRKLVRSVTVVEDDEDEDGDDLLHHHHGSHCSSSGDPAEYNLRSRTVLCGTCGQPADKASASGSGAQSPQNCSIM

progerin-Lamin A binding = target: T2, progerin-Lamin A binding (Homo sapiens, UniProt P02545); assay: ELISA-based screening of LMN A-Prg binding inhibitors; details: 0.1 mM final concentration
T2 sequence (P02545 515-614 isoform P02545-6 limits assumed): T1 sequence (P02545 515-614 isoform P02545-6 limits assumed)
Experimental: To isolate a Lamin A-Prg binding inhibitor, ELISA analysis was carried out. GST-progerin-C or LMN A-His was fixed with 0.5% paraformaldehyde on 96-well plates. After drying and washing steps, lysates of HEK 293 cells transfected with GFP-Lamin A, GST-Lamin A-C, or GST-progerin-C were incubated for 1 hr with a 0.1 mM (final concentration) binding inhibitor of the present invention. The 96-well plates were washed with TBST, followed by reaction with an anti-GFP-Ab (1:10,000, 45 min), an anti-GST-Ab (1:10,000, 45 min) and an anti-mouse-IgG-HRP (1:50,000, 30 min). The plates were washed twice, and incubated with a TMB solution (Calbiochem) and then with a stop solution (1 N H2SO4). Absorbance was read on an ELISA reader.
If progerin-induced senescence is mediated by binding LMN A, an inhibitor against binding between LMN A and progerin would block the progerin-induced pathological features. […] In this regard, an ELISA-based screening system was established. Briefly, progerin immobilized in 96-well plates was incubated with candidates from a chemical library, together with GFP-LMN A. Subsequently, association between progerin and the GFP protein was monitored in the presence of the inhibitor candidates (FIG. 15A). From the chemical library, four effective different compounds (JH-0307809; JH1, JH-02051109; JH13, JH-03070708; JH4, and LG-02-089-23; LG-02) were selected (FIGS. 15B and 16B), and analyzed by the monitoring (FIG. 16A). […] Their cytotoxicity was evaluated by MTT assay (FIGS. 15B and 16C).

p53 [2] = assay: p53 expression and DNA damage response in RCC cell lines; type: cell-based, human; details: C2 and Caki-2 cell lines
p53 [3] = assay: p53 induction in human fibroblasts (normal, HGPS, WS); type: cell-based
Experimental: Whole cell lysates were prepared in RIPA buffer, and centrifuged at 14,000 rpm for 30 min. Twenty micrograms of cell extracts were separated by SDS-polyacrylamide gel electrophoresis and transferred onto a PVDF membrane. The membrane was incubated for 1 hr to overnight at 4° C. with an appropriated primary antibody, followed by reaction with a secondary antibody at room temperature for 1 hr. Peroxidase activity was detected by chemiluminescence with an ECL kit (Intron) as recommended by the manufacturer.
The molecular mechanism of the inhibitory activity of progerin against p53 was scrutinized and p53 responsibility to DNA damage was determined in human progeria cell lines (HGPS and WS). […] WS cells are known to be insensitive to DNA damage-induced p53 activation, and as previously observed, WS cells can also express progerin.
Keeping in mind the fact that p53 is tightly regulated by the MDM2 pathway, the engagement of progerin with MDM2-mediated p53 suppression was also tested by treatment of Nutlin-3, which is a blocker between MDM2 and p53 and induces p53 expression. […] Considering the results, the elevated expression of progerin would be involved in DNA damage-induced p53 activation and MDM2-mediaeted p53 suppression.

[4] = system: transcriptional activity of p53; assay: p21-luc luciferase assay; type: cell-based; details: C2 cells, Adr treatment
[5] = system: association between LMN A and LMN B
[6] = target: self association of LMN A (Homo sapiens, UniProt P02545)
normal fibroblasts = assay: cell counting, normal fibroblasts; type: cell-based, human
Experimental: (§1) For cell counting, cells were harvested from media, and stained for 10 min at room temperature with Trypan blue. Viable cells were counted using a hemocytometer.

HGPS and normal cells = assay: senescence-specific β-galactosidase staining (SA-β-Gal); type: cell-based, human
Experimental: For senescence-specific acidic-β-galactosidase activity staining, cells were washed once with PBS (pH 7.2) and fixed with PBS containing 0.5% glutaraldehyde. After being washed with PBS, the cells were stained overnight at 37° C. in an X-gal solution (Senescence β-Galactosidase Staining kit; Cell Signaling Technology).

HGPS cells [7] = assay: cell counting, HGPS cells; type: cell-based, human
Experimental: as §1

RCC = assay: nuclear irregularity of RCC (Example 2); type: cell-based, human
Experimental: Based on our observation that the nuclear irregularity of RCC is caused by progerin and improved by FTI, the JH compounds were also examined for effect on RCC. Like FTI, the JH compounds ameliorated nuclear irregularity (FIG. 25). […] They were tested in vivo.

Sequence of self association of LMN A (P02545 whole entry): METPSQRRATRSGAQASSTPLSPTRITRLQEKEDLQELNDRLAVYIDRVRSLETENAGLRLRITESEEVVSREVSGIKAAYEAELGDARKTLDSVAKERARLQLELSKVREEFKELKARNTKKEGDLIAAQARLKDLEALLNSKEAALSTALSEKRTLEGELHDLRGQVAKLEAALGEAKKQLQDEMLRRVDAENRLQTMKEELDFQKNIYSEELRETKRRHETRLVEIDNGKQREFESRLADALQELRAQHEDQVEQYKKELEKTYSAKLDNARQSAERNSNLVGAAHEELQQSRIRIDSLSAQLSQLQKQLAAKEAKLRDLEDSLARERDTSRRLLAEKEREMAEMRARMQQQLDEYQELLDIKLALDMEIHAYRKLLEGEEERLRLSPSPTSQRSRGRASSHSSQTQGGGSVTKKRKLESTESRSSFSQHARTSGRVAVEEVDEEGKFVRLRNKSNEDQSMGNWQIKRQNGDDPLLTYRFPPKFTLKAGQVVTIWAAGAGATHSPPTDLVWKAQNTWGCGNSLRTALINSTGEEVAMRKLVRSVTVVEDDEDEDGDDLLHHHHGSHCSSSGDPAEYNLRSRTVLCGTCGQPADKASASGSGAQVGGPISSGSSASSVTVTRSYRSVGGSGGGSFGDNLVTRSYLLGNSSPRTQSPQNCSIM

Compound: COc1ccc(C2=N[C@@H](c3ccc(Cl)cc3)[C@@H](c3ccc(Cl)cc3)N2C(=O)N2CCNC(=O)C2)c(OC(C)C)c1 [Nutlin-3]
p53 induction (p53 [2]): did not induce p53 obviously | p53 induction (p53 [3]; HGPS cells): partial response | p53 induction (p53 [3]; normal cells): induced p53 obviously

Compound: COc1cccc2c1C(=O)c1c(O)c3c(c(O)c1C2=O)C[C@@](O)(C(=O)CO)C[C@@H]3O[C@H]1C[C@H](N)[C@H](O)[C@H](C)O1 [Adr, adriamycin]
p53 induction (p53 [3]; HGPS cells): did not show the induction of p53 | p53 induction (p53 [3]; Werner syndrome (WS) cells): did not show the induction of p53 | p53 induction (p53 [3]; normal cells): obviously increased | p21-luc expression / activation [4]: did not increase p21-luc expression

Compound: COC(=O)[C@H](CCSC)NC(=O)c1ccc(NC[C@@H](N)CS)cc1-c1ccccc1 [FTI]
nuclear irregularity of RCC (RCC): improved | blocking of Prg-LMN A interaction (Prg-LMN A binding): block the interaction, but slightly

Compound: CC1(C)Oc2ccc3oc(=O)ccc3c2C[C@@H]1OC(=O)C=Cc1ccc(O)c(O)c1 [LG-02, (6S)-(−)-3-(3,4-Dihydroxy-phenyl)-acrylic acid, 7,7-dimethyl-2-oxo-5,6-dihydro-7H-pyrano[3,2-f]chromen-6-yl-ester]
inhibition of association between immobilized progerin and GFP-LMN A (screening) (progerin-Lamin A binding): effective

Now from value to molecule, other results behind:

inhibitory activity against LMN A-progerin binding (LMN A-progerin binding): block LMN A-progerin binding | inhibition of association between immobilized progerin and GFP-LMN A (screening) (progerin-Lamin A binding): effective
Compound: CC1(C)Oc2cc3oc(=O)ccc3cc2C[C@@H]1OC(=O)C=Cc1ccc(O)c(O)c1 [JH13, (7S)-(+)-3-(3,4-Dihydroxy-phenyl)-acrylic acid, 8,8-dimethyl-2-oxo-6,7-dihydro-2H,8H-pyrano[3,2-g]chromen-7-yl-ester]
nuclear deformation (HGPS cells [1]): ameliorated the nuclear deformation | blocking of Prg-LMN A interaction (Prg-LMN A binding): blocking ability of JH4 and JH13 was also demonstrated

inhibition of association between immobilized progerin and GFP-LMN A (screening) (progerin-Lamin A binding): effective
Compound: CC1(C)Oc2cc3oc(=O)ccc3cc2C[C@@H]1OC(=O)CCc1ccc(O)c(O)c1 [JH1, (7S)-(+)-3-(3,4-Dihydroxyphenyl)propionic acid, 8,8-dimethyl-2-oxo-6,7-dihydro-2H,8H-pyrano[3,2-g]chromen-7-yl-ester]
nuclear deformation (HGPS cells [1]): ameliorated the nuclear deformation

inhibitory activity against LMN A-progerin binding (LMN A-progerin binding): block LMN A-progerin binding | disruption of self association of LMN A [6]: did not disrupt | inhibition of association between immobilized progerin and GFP-LMN A (screening) (progerin-Lamin A binding): effective
Compound: CC1(C)Oc2cc3oc(=O)ccc3cc2C[C@@H]1OC(=O)C=Cc1cccnc1 [JH4, (7S)-(+)-3-(3-Pyridyl)-acrylic acid, 8,8-dimethyl-2-oxo-6,7-dihydro-2H,8H-pyrano[3,2-g]chromen-7-yl-ester]
disruption of association between LMN A and LMN B [5]: did not disrupt | nuclear deformation, effect relative to the other compounds (HGPS cells [1]; HGPS cells (FIG. 17D)): more obvious effect than the other compounds | nuclear deformation (HGPS cells [1]): ameliorated the nuclear deformation | effect on LMN A mutants related with laminopathy (LMN A mutants): did not show a favorable effect | cell proliferation (normal fibroblasts): induced cell proliferation | SA-β-gal (HGPS and normal cells): could suppress SA-β-gal | cell proliferation (HGPS cells [7]): promoted cell proliferation
